# Measured values from article PMC5259778, “Candidate pheromone receptors of codling moth Cydia pomonella respond to pheromones and kairomones” (Scientific Reports, 2017).
# Target: CpomOrco + OR6a (Cydia pomonella, UniProt H9A5M1)
# Experiment: Calcium imaging of HEK293T cells expressing CpomOrco + OR6a
# Type: cell-based
# Protocol: HEK293T cells were grown in HEK cell media [Dulbecco’s modified Eagle’s medium containing 10% fetal bovine serum (MP Biomedicals, Solon, OH, USA), 2.0 mM L-glutamine, and 100 μg/mL Penicillin/Streptomycin (Invitrogen)] at 37 °C and 5% CO2. To test transient expression of CpomORs for calcium imaging or patch-clamp recording experiments, 35-mm petri dishes containing semi-confluent HEK293T cells were transiently transfected. To transfect cells with CpomOrco, we used 1.0 μg of pcDNA5/TO/CpomOrco DNA. In order to promote expression of the OR[51], we used double aliquots for pcDNA5/TO/CpomOR DNAs (2.0 μg), combined with 1.0 μg of pcDNA5/TO/CpomOrco for co-transfections (CpomOrco + ORs). To report expression for calcium imaging experiments, 1.0 μg of a separate plasmid DNA [pEBFP2-Nuc, a gift from Robert Campbell (Addgene plasmid # 14893[52])] carrying the coding sequence for a blue fluorescent protein (BFP) was used. In patch-clamp recordings, 1.0 μg of a separate plasmid DNA (pXOOM, Clontech) carrying the coding sequence for a green fluorescent protein (GFP) was used to report expression. In order to report candidate OR-expressing cells, expression of both fluorescent reporter genes was under the regulation of the same promoter for CpomOR genes (CMV). Transfection DNAs were dissolved in 100 μL sterile DMEM, mixed with 3.0 μL Calfectin (SignaGen, Rockville, MD, USA) following the recommended protocol. To estimate transfection efficiency, a parallel transfection was conducted using the positive control vector pcDNA5/TO/LACZ (Invitrogen) and staining with 0.1% XGal[53].
# Transfections were conducted overnight. HEK cell media was replaced with 1.0 mL fresh media to incubate cells at 37 °C for up to 6 h, at which point part of the cell culture was spread in the middle of a 35-mm plate as individual cells or small clusters. After 12 h of incubation at 37 °C and 5% CO2, cells were rinsed at the sides with 2.0 mL fresh HEK media. Cells were allowed to recover for at least 1 h prior to calcium imaging.
# To test activation of olfactory receptors, CpomOrco or CpomOrco + ORs HEK293T cells were incubated for 1 h at room temperature in 0.5–1.0 mL HEK cell Ringer (mM: 140 NaCl, 5.0 KCl, 1.0 CaCl2, 1.0 MgCl2, 10 HEPES, 10 Glucose, pH 7.5) containing the fluorescent calcium indicator Fluo-4AM (Invitrogen) at 5–15 μM prepared with 0.2–0.06% Pluronic F-127 (Invitrogen). After incubation, the buffer was removed and cells were rinsed with 4.0 mL fresh HEK Ca^++ Ringer (mM: 140 NaCl, 2.0 CaCl2, 10 HEPES, pH 7.5), and placed on the stage of an inverted microscope (Olympus IX-71, Olympus Corp., Tokyo, Japan) equipped with a cooled CCD camera (ORCA R2, Hamamatsu, Hamamatsu City, Japan). Cells were continuously superfused with Ca^++ Ringer using two gravity fed perfusion contours. The […] contour washing the cells (~250 μL/min) was switched rapidly to the stimulus contour using a multi-channel rapid solution changer (RSC-160, Bio-Logic, Claix, France) under the software control of Clampex 9 (Molecular Devices, Sunnyvale, CA, USA).
# Fluorescence imaging was performed using Imaging Workbench 6 software (INDEC BioSystems, Santa Clara, CA, USA). Each cell was assigned a region of interest (ROI) and changes in fluorescence intensity within each ROI were measured and expressed as the fractional change in fluorescence intensity (dF) or in some cases as dF/F0 where F0 is the basal fluorescence level before agonist application. […] Continuous traces of multiple responses were compensated for slow drift of the baseline fluorescence when necessary. All recordings were performed at room temperature (22–25 °C).
# HEK293T cells expressing CpomOrco + OR6a, CpomOrco + OR3 and CpomOrco + OR1 were stimulated with an array of compounds such as: potential insect pheromone compounds and plant volatile synergists active on the olfactory system and behaviour of the codling moth[1][25], non-host plant volatiles active on other tortricids, the methyl pear-ester[33] […]
# Chain of CpomOrco + OR6a (H9A5M1 entry or part of it): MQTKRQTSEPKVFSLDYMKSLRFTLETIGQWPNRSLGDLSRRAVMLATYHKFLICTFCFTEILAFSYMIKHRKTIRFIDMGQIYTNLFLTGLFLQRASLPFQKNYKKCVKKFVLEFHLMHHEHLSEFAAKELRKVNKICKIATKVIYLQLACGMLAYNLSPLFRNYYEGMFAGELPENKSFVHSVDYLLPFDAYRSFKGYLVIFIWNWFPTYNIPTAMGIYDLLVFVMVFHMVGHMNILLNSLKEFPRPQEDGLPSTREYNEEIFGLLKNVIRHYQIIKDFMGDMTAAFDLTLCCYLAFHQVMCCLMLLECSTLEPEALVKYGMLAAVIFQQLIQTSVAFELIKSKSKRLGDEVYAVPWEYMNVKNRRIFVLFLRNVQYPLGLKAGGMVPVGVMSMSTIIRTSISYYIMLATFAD
# Chain of CpomOrco + OR6a (H9A5M2 entry or part of it, further chain): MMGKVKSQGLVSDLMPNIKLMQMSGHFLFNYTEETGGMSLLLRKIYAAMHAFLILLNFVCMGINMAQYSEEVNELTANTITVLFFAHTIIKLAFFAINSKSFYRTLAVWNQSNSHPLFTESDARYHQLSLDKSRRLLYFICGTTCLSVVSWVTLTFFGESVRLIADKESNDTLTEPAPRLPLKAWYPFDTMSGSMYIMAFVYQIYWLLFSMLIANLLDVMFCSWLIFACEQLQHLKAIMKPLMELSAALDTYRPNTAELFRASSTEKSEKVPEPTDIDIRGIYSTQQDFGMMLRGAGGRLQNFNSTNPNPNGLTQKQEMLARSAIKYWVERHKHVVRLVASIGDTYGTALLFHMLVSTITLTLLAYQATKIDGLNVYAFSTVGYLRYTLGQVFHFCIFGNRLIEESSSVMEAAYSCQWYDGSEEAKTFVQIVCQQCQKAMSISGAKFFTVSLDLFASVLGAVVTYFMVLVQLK
"amplitude of the calcium response (mean of the maximum response ± SEM) (100 μM, n = 70) [dF]","amplitude of the calcium response (mean of the maximum response ± SEM) (250 μM positive control, n = 68) [dF]",Structure (SMILES),"amplitude of the calcium response (mean of the maximum response ± SEM) (50 μM, n = 70) [dF]","amplitude of the calcium response (mean of the maximum response ± SEM) (1500 μM, n = 68) [dF]","Emax (HEK-293T, vs 250 μM VUAA3, read-out: amplitude at saturating concentrations relative to the positive control amplitude) [%]",EC50 (calcium response normalized to 250 μM VUAA3) [µM]
37.96 ± 20.98,69.71 ± 27.29,"CCn1c(SCC(=O)Nc2ccc(C(C)C)cc2)nnc1-c1ccncc1 [VUAA3, acetamide,2-[[4-ethyl-5-(4-pyridinyl)-4H-1,2,4-triazol-3-yl]thio]-N-[4-(1-methylethyl)phenyl]-]",–,–,–,–
–,–,"C/C=C/C=C/CCCCCCCOC(C)=O [codlemone acetate, (E,E)-8,10-dodecadien-1-yl acetate]",12.04 ± 8.17,18.91 ± 10.31,~27,51.8 ± 13.2
–,–,"C/C=C/C=C/CCCCCCCO [codlemone, (E,E)-8,10-dodecadien-1-ol]",0.38 ± 1.84,5.7 ± 3.64,–,–
